Data taken from ChEMBL document CHEMBL4130500, “New pyridine derivatives as inhibitors of acetylcholinesterase and amyloid aggregation” (Eur J Med Chem, 2017).
Activity calls are given as the source filed them. The calls are words filed in the database; no cut-off is given here.

Tests used:
[1] = Cytotoxicity against human T67 cells assessed as effect on cell viability up to 10 uM after 24 hrs by MTT assay; type: cell-based
[2] = biological target: Acetylcholinesterase (Electrophorus electricus) (UniProt O42275); assay: Time-dependent inhibition of electric eel AChE at 300 nM using acetylthiocholine iodide as substrate
[3] = biological target: Cholinesterase (Equus caballus) (UniProt P81908); assay: Inhibition of equine BChE at 30 uM using butyrylthiocholine iodide as substrate measured from 0.5 to 1.5 mins by spectrophotometry based Ellman's method relative to control
[4] = biological target: Cholinesterase (Equus caballus) (UniProt P81908); assay: Inhibition of equine BChE at 0.3 uM using butyrylthiocholine iodide as substrate measured from 0.5 to 1.5 mins by spectrophotometry based Ellman's method relative to control
HeLa [5] = assay: Cytotoxicity against human HeLa cells after 24 hrs by MTT assay; type: cell-based
Acetylcholinesterase [6] = biological target: Acetylcholinesterase (Electrophorus electricus, UniProt O42275); assay: Mixed inhibition of electric eel AChE using acetylthiocholine iodide as substrate measured from 0.5 to 1.5 mins by Dixon plot analysis
Cholinesterase [7] = biological target: T1, Cholinesterase (Homo sapiens, UniProt P06276); assay: Inhibition of human serum BChE using butyrylthiocholine iodide as substrate preincubated for 20 mins followed by substrate addition measured for 3 mins by Ellman's method
[8] = Cytotoxicity against human T67 cells after 24 hrs by MTT assay; type: cell-based; details: T67, 24 h
Acetylcholinesterase [9] = biological target: T2, Acetylcholinesterase (Homo sapiens, UniProt P22303); assay: Inhibition of human serum AChE using acetylthiocholine iodide as substrate preincubated for 20 mins followed by substrate addition measured for 3 mins by Ellman's method
HeLa [10] = assay: Cytotoxicity against human HeLa cells assessed as effect on cell viability up to 10 uM after 24 hrs by MTT assay; type: cell-based
[11] = biological target: Acetylcholinesterase (Electrophorus electricus) (UniProt O42275); assay: Inhibition of electric eel AChE at 0.3 uM using acetylthiocholine iodide as substrate measured from 0.5 to 1.5 mins by spectrophotometry-based Ellman's method relative to control
[12] = biological target: Acetylcholinesterase (Electrophorus electricus) (UniProt O42275); assay: Inhibition of electric eel AChE at 3.0 uM using acetylthiocholine iodide as substrate measured from 0.5 to 1.5 mins by spectrophotometry-based Ellman's method relative to control
[13] = biological target: Acetylcholinesterase (Electrophorus electricus) (UniProt O42275); assay: Inhibition of electric eel AChE at 0.03 uM using acetylthiocholine iodide as substrate measured from 0.5 to 1.5 mins by spectrophotometry-based Ellman's method relative to control
[14] = biological target: Cholinesterase (Equus caballus) (UniProt P81908); assay: Inhibition of equine BChE at 3.0 uM using butyrylthiocholine iodide as substrate measured from 0.5 to 1.5 mins by spectrophotometry based Ellman's method relative to control
HeLa [15] = assay: Cytotoxicity against human HeLa cells assessed as cell mortality at 10 uM after 24 hrs by MTT assay; type: cell-based
[16] = Cytotoxicity against human T67 cells assessed as cell mortality at 10 uM after 24 hrs by MTT assay; type: cell-based
Acetylcholinesterase [17] = biological target: T2, Acetylcholinesterase; assay: Inhibition of human serum AChE at 25 uM using acetylthiocholine iodide as substrate preincubated for 20 mins followed by substrate addition measured for 3 mins by Ellman's method
Cholinesterase [18] = biological target: T1, Cholinesterase; assay: Inhibition of human serum BChE at 25 uM using butyrylthiocholine iodide as substrate preincubated for 20 mins followed by substrate addition measured for 3 mins by Ellman's method

Chain of Acetylcholinesterase (Electrophorus electricus, UniProt O42275) (O42275 whole entry): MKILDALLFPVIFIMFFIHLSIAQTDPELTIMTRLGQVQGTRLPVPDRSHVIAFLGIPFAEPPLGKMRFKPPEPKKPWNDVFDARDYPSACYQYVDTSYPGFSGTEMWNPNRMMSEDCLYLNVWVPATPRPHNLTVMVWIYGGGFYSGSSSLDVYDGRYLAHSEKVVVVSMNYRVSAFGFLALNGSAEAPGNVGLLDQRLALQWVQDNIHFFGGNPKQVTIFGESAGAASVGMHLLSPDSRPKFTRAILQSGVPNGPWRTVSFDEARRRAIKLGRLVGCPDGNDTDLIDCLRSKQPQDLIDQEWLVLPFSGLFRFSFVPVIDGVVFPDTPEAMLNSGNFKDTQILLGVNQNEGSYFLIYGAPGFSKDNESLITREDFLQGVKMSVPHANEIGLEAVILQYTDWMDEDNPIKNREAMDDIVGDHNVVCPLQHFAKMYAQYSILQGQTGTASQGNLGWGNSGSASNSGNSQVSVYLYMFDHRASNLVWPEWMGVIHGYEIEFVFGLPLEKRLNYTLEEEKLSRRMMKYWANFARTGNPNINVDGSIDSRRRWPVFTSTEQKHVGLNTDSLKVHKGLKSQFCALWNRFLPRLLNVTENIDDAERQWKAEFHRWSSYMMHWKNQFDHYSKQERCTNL
T1 sequence (P06276 whole entry): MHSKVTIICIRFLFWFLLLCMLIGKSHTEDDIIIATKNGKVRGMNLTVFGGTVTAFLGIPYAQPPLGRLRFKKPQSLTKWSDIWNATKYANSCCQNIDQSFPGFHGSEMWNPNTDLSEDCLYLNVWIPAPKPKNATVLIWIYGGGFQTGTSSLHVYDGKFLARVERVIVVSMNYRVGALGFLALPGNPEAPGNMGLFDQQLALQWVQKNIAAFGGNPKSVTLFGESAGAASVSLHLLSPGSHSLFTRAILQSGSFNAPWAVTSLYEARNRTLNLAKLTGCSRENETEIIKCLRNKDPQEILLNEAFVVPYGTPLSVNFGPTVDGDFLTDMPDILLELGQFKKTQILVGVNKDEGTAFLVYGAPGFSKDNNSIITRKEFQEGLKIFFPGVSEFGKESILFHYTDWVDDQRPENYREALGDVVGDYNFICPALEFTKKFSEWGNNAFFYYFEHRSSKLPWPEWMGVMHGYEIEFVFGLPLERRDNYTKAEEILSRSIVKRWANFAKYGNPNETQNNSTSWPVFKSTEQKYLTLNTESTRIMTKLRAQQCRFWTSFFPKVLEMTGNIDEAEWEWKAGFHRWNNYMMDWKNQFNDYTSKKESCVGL
Chain of Acetylcholinesterase (Electrophorus electricus) (O42275 24-633 limits assumed): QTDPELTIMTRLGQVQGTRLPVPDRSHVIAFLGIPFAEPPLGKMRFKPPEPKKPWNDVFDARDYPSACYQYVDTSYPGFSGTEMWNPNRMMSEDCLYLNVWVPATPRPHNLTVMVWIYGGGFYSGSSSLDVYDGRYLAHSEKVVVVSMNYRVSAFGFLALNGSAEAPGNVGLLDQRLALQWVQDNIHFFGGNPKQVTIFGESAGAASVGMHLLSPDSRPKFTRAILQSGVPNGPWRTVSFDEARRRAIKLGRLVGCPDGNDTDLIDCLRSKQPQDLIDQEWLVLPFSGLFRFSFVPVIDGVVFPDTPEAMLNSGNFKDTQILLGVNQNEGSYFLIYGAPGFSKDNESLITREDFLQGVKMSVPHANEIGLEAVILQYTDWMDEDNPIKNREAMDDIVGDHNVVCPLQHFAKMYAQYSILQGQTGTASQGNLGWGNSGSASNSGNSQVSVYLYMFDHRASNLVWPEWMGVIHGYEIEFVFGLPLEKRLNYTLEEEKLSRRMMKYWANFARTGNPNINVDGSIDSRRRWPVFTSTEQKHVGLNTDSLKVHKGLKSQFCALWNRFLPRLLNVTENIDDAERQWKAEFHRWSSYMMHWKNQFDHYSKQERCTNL
T2 sequence (P22303 whole entry): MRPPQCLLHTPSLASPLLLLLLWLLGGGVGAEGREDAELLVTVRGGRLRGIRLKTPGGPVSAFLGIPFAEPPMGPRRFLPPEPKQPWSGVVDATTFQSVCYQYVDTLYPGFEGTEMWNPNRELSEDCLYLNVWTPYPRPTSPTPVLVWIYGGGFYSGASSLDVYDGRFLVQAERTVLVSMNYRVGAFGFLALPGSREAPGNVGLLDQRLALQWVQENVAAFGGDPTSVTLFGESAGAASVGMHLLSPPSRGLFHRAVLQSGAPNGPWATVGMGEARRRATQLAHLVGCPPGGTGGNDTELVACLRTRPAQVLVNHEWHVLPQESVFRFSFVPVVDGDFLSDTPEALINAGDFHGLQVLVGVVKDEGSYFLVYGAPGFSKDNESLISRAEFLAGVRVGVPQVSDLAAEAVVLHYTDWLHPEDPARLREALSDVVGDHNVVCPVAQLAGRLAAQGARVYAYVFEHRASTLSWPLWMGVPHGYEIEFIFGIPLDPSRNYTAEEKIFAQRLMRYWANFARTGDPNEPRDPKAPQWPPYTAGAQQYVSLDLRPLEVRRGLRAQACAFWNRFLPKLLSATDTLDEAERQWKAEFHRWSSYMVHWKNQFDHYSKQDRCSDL
Chain of Cholinesterase (Equus caballus) (P81908 whole entry): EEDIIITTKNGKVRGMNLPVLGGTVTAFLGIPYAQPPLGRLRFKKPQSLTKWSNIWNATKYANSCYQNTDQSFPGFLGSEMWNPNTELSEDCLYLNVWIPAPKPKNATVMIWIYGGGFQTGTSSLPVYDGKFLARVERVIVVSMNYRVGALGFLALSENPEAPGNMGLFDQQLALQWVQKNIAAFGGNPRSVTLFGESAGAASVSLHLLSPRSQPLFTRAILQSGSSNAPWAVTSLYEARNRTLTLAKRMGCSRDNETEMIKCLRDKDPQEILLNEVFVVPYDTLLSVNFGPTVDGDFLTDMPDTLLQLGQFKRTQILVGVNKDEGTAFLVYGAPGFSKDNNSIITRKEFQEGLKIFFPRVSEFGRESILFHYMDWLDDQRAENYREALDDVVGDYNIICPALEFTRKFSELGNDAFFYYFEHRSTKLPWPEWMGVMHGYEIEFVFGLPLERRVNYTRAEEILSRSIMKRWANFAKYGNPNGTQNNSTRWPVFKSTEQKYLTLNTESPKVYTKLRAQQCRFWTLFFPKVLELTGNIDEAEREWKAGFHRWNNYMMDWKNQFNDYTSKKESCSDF

O=C(Nc1cc(Cl)nc(Cl)c1)OCCCCCNCc1ccccc1
Activity [1]: Non-Toxic | TDI [2]: inactive | inhibition [3]: 95% | inhibition [4]: 17% | IC50 (HeLa [5]): 20.8 µM | Ki (Acetylcholinesterase [6]): 0.0386 µM | IC50 (Cholinesterase [7]): 4.59 µM | IC50 [8]: 24.1 µM | IC50 (Acetylcholinesterase [9]): 0.153 µM | Activity (HeLa [10]): Non-Toxic | inhibition [11]: 91% | inhibition [12]: 99% | inhibition [13]: 65%

COc1ccccc1CNCCCCCOC(=O)Nc1cc(Cl)nc(Cl)c1
TDI [2]: inactive | inhibition [4]: < 5% | inhibition [14]: 49% | Ki (Acetylcholinesterase [6]): 0.288 µM | IC50 (Cholinesterase [7]): 4.02 µM | IC50 (Acetylcholinesterase [9]): 6.16 µM | inhibition [11]: 50% | inhibition [12]: 89% | inhibition [13]: 10%

O=C(Nc1cc(Cl)nc(Cl)c1)OCCCCCCNCc1ccccc1
Activity (HeLa [15]): 25% | TDI [2]: inactive | inhibition [3]: 89% | inhibition [4]: 12% | IC50 (HeLa [5]): 12.5 µM | Ki (Acetylcholinesterase [6]): 0.259 µM | IC50 (Cholinesterase [7]): 4.01 µM | IC50 [8]: 13.2 µM | IC50 (Acetylcholinesterase [9]): 0.759 µM | Activity [16]: 25% | inhibition [11]: 72% | inhibition [12]: 91% | inhibition [13]: 33%

O=C(NCCCCCCNCc1c[nH]c2ccccc12)c1cc(Cl)nc(Cl)c1
inhibition [4]: 13% | inhibition [14]: 64% | Ki (Acetylcholinesterase [6]): 0.205 µM | IC50 (Cholinesterase [7]): 4.7 µM | IC50 (Acetylcholinesterase [9]): 8.85 µM | inhibition [11]: 55% | inhibition [12]: 92% | inhibition [13]: 15%

O=C(Nc1ccncc1Br)OCCCCCNCc1ccccc1
TDI [2]: inactive | inhibition [4]: < 5% | inhibition [14]: 57% | Ki (Acetylcholinesterase [6]): 0.404 µM | IC50 (Cholinesterase [7]): 5.27 µM | IC50 (Acetylcholinesterase [9]): 4.04 µM | inhibition [11]: 55% | inhibition [12]: 90% | inhibition [13]: 20%

O=C(NCCCCCCNCc1ccc2ccccc2c1)c1cc(Cl)nc(Cl)c1
inhibition [14]: 46% | IC50 (Cholinesterase [7]): 9.96 µM | IC50 (Acetylcholinesterase [9]): 99.7 µM | inhibition [11]: inactive | inhibition [12]: 15%

O=C(Nc1cc(Cl)nc(Cl)c1)OCCCCCNCc1c[nH]c2ccccc12
Activity (HeLa [15]): 50% | TDI [2]: inactive | inhibition [4]: 8% | inhibition [14]: 57% | IC50 (HeLa [5]): 6.7 µM | Ki (Acetylcholinesterase [6]): 0.157 µM | IC50 (Cholinesterase [7]): 0.828 µM | IC50 [8]: 5.8 µM | IC50 (Acetylcholinesterase [9]): 0.648 µM | Activity [16]: 50% | inhibition [11]: 76% | inhibition [12]: 97% | inhibition [13]: 24%

O=C(Nc1cc(Cl)nc(Cl)c1)OCCCCCNCc1ccc(Oc2ccccc2)cc1
TDI [2]: inactive | inhibition [14]: 60% | IC50 (Cholinesterase [7]): 8.41 µM | inhibition [11]: < 5% | inhibition [12]: 24% | inhibition (Acetylcholinesterase [17]): < 20%

O=C(NCCCCCCNCc1ccccc1)c1cc(Cl)nc(Cl)c1
inhibition [4]: 17% | inhibition [14]: 73% | Ki (Acetylcholinesterase [6]): 0.0528 µM | IC50 (Cholinesterase [7]): 25.8 µM | IC50 (Acetylcholinesterase [9]): 3.17 µM | inhibition [11]: 71% | inhibition [12]: 95% | inhibition [13]: 18%

COc1ccccc1CNCCCCCCNC(=O)c1cc(Cl)nc(Cl)c1
inhibition [4]: 6% | inhibition [14]: 54% | Ki (Acetylcholinesterase [6]): 0.355 µM | IC50 (Cholinesterase [7]): 45.5 µM | IC50 (Acetylcholinesterase [9]): 8.3 µM | inhibition [11]: 49% | inhibition [12]: 90% | inhibition [13]: 14%

O=C(NCCCCCCNCc1ccc(Oc2ccccc2)cc1)c1cc(Cl)nc(Cl)c1
inhibition [14]: 18% | inhibition [11]: inactive | inhibition (Cholinesterase [18]): < 20% | inhibition [12]: 16% | inhibition (Acetylcholinesterase [17]): < 20%
